The values below come from patent US12370263B2, “Cyclic dinucleotide derivative based antibody-drug conjugates” (DAIICHI SANKYO COMPANY, LIMITED, priority 2018, dated 2025).

Chain of Human STING (Q86WV6 whole entry R71H/G230A/H232R/R293Q): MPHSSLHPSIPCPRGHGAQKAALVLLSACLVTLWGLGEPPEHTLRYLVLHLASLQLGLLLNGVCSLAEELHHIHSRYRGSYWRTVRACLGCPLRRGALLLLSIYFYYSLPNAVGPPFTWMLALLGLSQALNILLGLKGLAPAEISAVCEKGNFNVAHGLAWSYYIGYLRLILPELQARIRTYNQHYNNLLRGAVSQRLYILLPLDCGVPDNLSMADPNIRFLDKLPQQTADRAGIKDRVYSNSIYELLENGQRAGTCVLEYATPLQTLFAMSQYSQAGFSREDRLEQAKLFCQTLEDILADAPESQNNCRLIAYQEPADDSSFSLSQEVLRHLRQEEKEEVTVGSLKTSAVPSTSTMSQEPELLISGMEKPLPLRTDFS

In the first experiment the target is T1, HisAviTEV-hSTING (139-342) human wild-type protein (Homo sapiens, UniProt Q86WV6, H232R).
T1 construct: made in house; host or cells: E. coli Rosetta 2 (DE3), co-expressed with BirA (1-321)
T1 sequence (Q86WV6 with tags, fused parts or gaps H232R): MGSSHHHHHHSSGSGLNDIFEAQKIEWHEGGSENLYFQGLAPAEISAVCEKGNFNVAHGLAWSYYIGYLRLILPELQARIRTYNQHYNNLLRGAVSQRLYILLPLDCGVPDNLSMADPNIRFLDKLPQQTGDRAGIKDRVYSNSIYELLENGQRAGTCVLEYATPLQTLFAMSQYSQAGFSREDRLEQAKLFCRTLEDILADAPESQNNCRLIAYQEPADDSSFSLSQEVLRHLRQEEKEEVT
Briefly: Protein thermal shift assay, STING C-terminal binding domain protein. The following applies: test compound final concentration 0.5 mM.
Consider `O=C(CO)NCCn1cnc2c(ncn2[C@@H]2O[C@@H]3COP(=O)(S)O[C@H]4[C@@H](F)[C@H](n5cc6c7c(ncnc75)SCCC6)O[C@@H]4COP(=O)(S)O[C@@H]2[C@@H]3O)c1=O` (single isomer, unassigned) [50b], for which the “ΔTm Hu-WT” value turned out to be 12.3 °C.

A further experiment concerns the target Human STING (Homo sapiens, UniProt Q86WV6, G230A/H232R/R293Q/R71H). Briefly: Reporter gene assay, human STING agonist activity, THP1-Dual cells (HAQ-mutated), IRF pathway. The following applies: THP1-Dual cells IRF EC50, THP1-Dual cells (HAQ-mutated), 24 hours; 100% = maximum count with ML-RR-CDA·2Na+. For orientation: Reporter assays use an easily measured gene product as a stand-in for the process of interest.
A word on the EC50: it is the concentration needed to bring the measured effect to its halfway point. Consider `Nc1ncnc2c1ncn2[C@@H]1O[C@@H]2COP(=O)(S)O[C@H]3[C@@H](O)[C@H](n4cc5c6c(ncnc64)NCCC5)O[C@@H]3COP(=O)(S)O[C@@H]1[C@@H]2O` (single isomer, unassigned) [1b], for which the midpoint of the response, the EC50, lay at 0.3 µM.

For `Nc1ncnc2c1ncn2[C@@H]1O[C@@H]2COP(=O)(S)O[C@H]3[C@@H](O)[C@H](n4cc5c6c(ncnc64)NCCC5)O[C@@H]3COP(=O)(S)O[C@@H]1[C@@H]2O` (single isomer, unassigned) [2a], a half-maximal effect (EC50) was put at 4.7 µM.

`NCCn1cnc2c(ncn2[C@@H]2O[C@@H]3COP(=O)(S)O[C@H]4[C@@H](O)[C@H](n5cc6c7c(ncnc75)NCCC6)O[C@@H]4COP(=O)(S)O[C@@H]2[C@@H]3O)c1=O` (single isomer, unassigned) [5a] returned an EC50 of 2.4 µM.

In turn, `O=c1c2ncn([C@@H]3O[C@@H]4COP(=O)(S)O[C@H]5[C@@H](O)[C@H](n6cc7c8c(ncnc86)NCCC7)O[C@@H]5COP(=O)(S)O[C@@H]3[C@@H]4O)c2ncn1CCO` (single isomer, unassigned) [6b] had an EC50 of 2.1 µM.

`Nc1nc(NCCO)nc2c1ncn2[C@@H]1O[C@@H]2COP(=O)(S)O[C@H]3[C@@H](O)[C@H](n4cc5c6c(ncnc64)NCCC5)O[C@@H]3COP(=O)(S)O[C@@H]1[C@@H]2O` (single isomer, unassigned) [9a] came in with an EC50 of 5.7 µM.

As to `CC(C)(N)CNc1nc(N)c2ncn([C@@H]3O[C@@H]4COP(=O)(S)O[C@H]5[C@@H](O)[C@H](n6cc7c8c(ncnc86)NCCC7)O[C@@H]5COP(=O)(S)O[C@@H]3[C@@H]4O)c2n1` (single isomer, unassigned) [10a], it took 6.3 µM to reach a half-maximal effect (EC50).

Turning to `NCc1nc(N)c2ncn([C@@H]3O[C@@H]4COP(=O)(S)O[C@H]5[C@@H](O)[C@H](n6cc7c8c(ncnc86)NCCC7)O[C@@H]5COP(=O)(S)O[C@@H]3[C@@H]4O)c2n1` (single isomer, unassigned) [11a], a half-maximal effect (EC50) was put at 4 µM.

Regarding `Nc1nc(CO)nc2c1ncn2[C@@H]1O[C@@H]2COP(=O)(S)O[C@H]3[C@@H](O)[C@H](n4cc5c6c(ncnc64)NCCC5)O[C@@H]3COP(=O)(S)O[C@@H]1[C@@H]2O` (single isomer, unassigned) [12b], the EC50 amounted to 1.8 µM.

Consider `Nc1ncnc2c1ncn2[C@@H]1O[C@@H]2COP(=O)(S)O[C@H]3[C@@H](O)[C@H](n4cc5c6c(ncnc64)OCCC5)O[C@@H]3COP(=O)(S)O[C@@H]1[C@@H]2O` (single isomer, unassigned) [20b], for which the EC50 came to 0.4 µM.

`Nc1ncnc2c1ncn2[C@@H]1O[C@@H]2COP(=O)(S)O[C@H]3[C@@H](O)[C@H](n4cc5c6c(ncnc64)OCCC5)O[C@@H]3COP(=O)(S)O[C@@H]1[C@@H]2O` (single isomer, unassigned) [21b] returned an EC50 of 0.7 µM.

As to `C[C@H]1CCc2cn([C@@H]3O[C@@H]4COP(=O)(S)O[C@@H]5[C@H](O)[C@@H](COP(=O)(S)O[C@H]4[C@H]3O)O[C@H]5n3cnc4c(N)ncnc43)c3ncnc(c23)O1` (single isomer, unassigned) [22b], the EC50 turned out to be 4.3 µM.

The compound `Nc1ncnc2c1ncn2[C@@H]1O[C@@H]2COP(=O)(S)O[C@H]3[C@@H](O)[C@H](n4cc5c6c(ncnc64)SCCC5)O[C@@H]3COP(=O)(S)O[C@@H]1[C@@H]2O` (single isomer, unassigned) [23b] came in with an EC50 of 0.055 µM.

Turning to `O=c1c2ncn([C@@H]3O[C@@H]4COP(=O)(S)O[C@H]5[C@@H](O)[C@H](n6cc7c8c(ncnc86)NCCC7)O[C@@H]5COP(=O)(S)O[C@@H]3[C@@H]4O)c2ncn1CCCO` (single isomer, unassigned) [26a], the EC50 turned out to be 1.4 µM.

As to `O=c1c2ncn([C@@H]3O[C@@H]4COP(=O)(S)O[C@H]5C[C@H](n6cc7c8c(ncnc86)NCCC7)O[C@@H]5COP(=O)(S)O[C@@H]3[C@@H]4O)c2ncn1CCO` (single isomer, unassigned) [32a], the response was half-maximal at 1.2 µM (EC50).

For `O=c1c2ncn([C@@H]3O[C@@H]4COP(=O)(S)O[C@H]5C[C@H](n6cc7c8c(ncnc86)NCCC7)O[C@@H]5COP(=O)(S)O[C@@H]3[C@@H]4O)c2ncn1CCO` (single isomer, unassigned) [32b], the EC50 amounted to 6.4 µM.

In turn, `O=c1c2ncn([C@@H]3O[C@@H]4COP(=O)(S)O[C@H]5[C@H](F)[C@H](n6cc7c8c(ncnc86)NCCC7)O[C@@H]5COP(=O)(S)O[C@@H]3[C@@H]4O)c2ncn1CCO` (single isomer, unassigned) [33a] returned an EC50 of 0.18 µM.

`O=c1c2ncn([C@@H]3O[C@@H]4COP(=O)(S)O[C@H]5[C@@H](F)[C@H](n6cc7c8c(ncnc86)NCCC7)O[C@@H]5COP(=O)(S)O[C@@H]3[C@@H]4O)c2ncn1CCO` (single isomer, unassigned) [34b] returned an EC50 of 0.55 µM.

In turn, `O=c1c2ncn([C@@H]3O[C@@H]4COP(=O)(S)O[C@H]5[C@@H](O)[C@H](n6cc7c8c(ncnc86)NCCC7)O[C@@H]5COP(=O)(S)O[C@@H]3C4)c2ncn1CCO` (single isomer, unassigned) [38a] showed an EC50 of 0.45 µM.

The compound `O=c1c2ncn([C@@H]3O[C@@H]4COP(=O)(S)O[C@H]5[C@@H](O)[C@H](n6cc7c8c(ncnc86)NCCC7)O[C@@H]5COP(=O)(S)O[C@@H]3C4)c2ncn1CCO` (single isomer, unassigned) [38b] gave an EC50 of 1.6 µM.

Consider `O=c1c2ncn([C@@H]3O[C@@H]4COP(=O)(S)O[C@H]5[C@@H](O)[C@H](n6cc7c8c(ncnc86)NCCC7)O[C@@H]5COP(=O)(S)O[C@@H]3[C@@H]4F)c2ncn1CCO` (single isomer, unassigned) [39b], for which the EC50 worked out at 0.41 µM.

Compound `NCCn1cnc2c(ncn2[C@@H]2O[C@@H]3COP(=O)(S)O[C@H]4[C@@H](O)[C@H](n5cc6c7c(ncnc75)NCCC6)O[C@@H]4COP(=O)(S)O[C@@H]2[C@@H]3F)c1=O` (single isomer, unassigned) [40a] showed an EC50 of 3.4 µM.

For the compound `NCCn1cnc2c(ncn2[C@@H]2O[C@@H]3COP(=O)(S)O[C@H]4[C@@H](O)[C@H](n5cc6c7c(ncnc75)NCCC6)O[C@@H]4COP(=O)(S)O[C@@H]2[C@@H]3F)c1=O` (single isomer, unassigned) [40b], a half-maximal response (EC50) required 3.2 µM.

For `O=C(CO)NCCn1cnc2c(ncn2[C@@H]2O[C@@H]3COP(=O)(S)O[C@H]4[C@@H](O)[C@H](n5cc6c7c(ncnc75)NCCC6)O[C@@H]4COP(=O)(S)O[C@@H]2[C@@H]3F)c1=O` (single isomer, unassigned) [41a], a half-maximal response (EC50) required 1.1 µM.

Regarding `O=C(CO)NCCn1cnc2c(ncn2[C@@H]2O[C@@H]3COP(=O)(S)O[C@H]4[C@@H](O)[C@H](n5cc6c7c(ncnc75)NCCC6)O[C@@H]4COP(=O)(S)O[C@@H]2[C@@H]3F)c1=O` (single isomer, unassigned) [41b], the EC50 was found to be 3.6 µM.

`O=c1c2ncn([C@@H]3O[C@@H]4COP(=O)(S)O[C@H]5[C@@H](F)[C@H](n6cc7c8c(ncnc86)NCCC7)O[C@@H]5COP(=O)(S)O[C@@H]3[C@@H]4F)c2ncn1CCO` (single isomer, unassigned) [44b] yielded a 50% effective concentration (EC50) of 0.35 µM.

`O=c1c2ncn([C@@H]3O[C@@H]4COP(=O)(S)O[C@H]5[C@@H](F)[C@H](n6cc7c8c(ncnc86)SCCC7)O[C@@H]5COP(=O)(S)O[C@@H]3[C@@H]4O)c2ncn1CCO` (single isomer, unassigned) [48b] showed an EC50 of 0.039 µM.

The compound `NCCn1cnc2c(ncn2[C@@H]2O[C@@H]3COP(=O)(S)O[C@H]4[C@@H](F)[C@H](n5cc6c7c(ncnc75)SCCC6)O[C@@H]4COP(=O)(S)O[C@@H]2[C@@H]3O)c1=O` (single isomer, unassigned) [49a] had an EC50 of 0.33 µM.

The compound `O=C(CO)NCCn1cnc2c(ncn2[C@@H]2O[C@@H]3COP(=O)(S)O[C@H]4[C@@H](F)[C@H](n5cc6c7c(ncnc75)SCCC6)O[C@@H]4COP(=O)(S)O[C@@H]2[C@@H]3O)c1=O` (single isomer, unassigned) [50b] displayed an EC50 of 0.2 µM.

`NCCNc1nc(N)c2ncn([C@@H]3O[C@@H]4COP(=O)(S)O[C@H]5[C@@H](F)[C@H](n6cc7c8c(ncnc86)SCCC7)O[C@@H]5COP(=O)(S)O[C@@H]3[C@@H]4F)c2n1` (single isomer, unassigned) [51a] registered an EC50 of 0.32 µM.

The compound `O=c1c2ncn([C@@H]3O[C@@H]4COP(=O)(O)O[C@H]5[C@@H](F)[C@H](n6cc7c8c(ncnc86)NCCC7)O[C@@H]5COP(=O)(S)O[C@@H]3[C@@H]4O)c2ncn1CCO` (single isomer, unassigned) [52b] came in with an EC50 of 0.46 µM.

`Nc1ncnc2c1ncn2[C@@H]1O[C@@H]2COP(=O)(S)O[C@H]3[C@@H](O)[C@H](n4cc5c6c(ncnc64)NCCC5)O[C@@H]3COP(=O)(S)O[C@@H]1[C@@H]2O` (stereo partly drawn) [47a, Disodium (2S,5R,7R,8R,12aR,14R,15R,15aS,16R)-7-(6-amino-9H-purin-9-yl)-15,16-dihydroxy-2-oxo-10-sulfanylidene-14-(6,7,8,9-tetrahydro-2H-2,3,5,6-tetraazabenzo[cd]azulen-2-yl)octahydro-2H,10H,12H-5,8-methano-2λ^5,10λ^5-furo[3,2-1][1,3,6,9,11,2,10]pentaoxadiphosphacyclotetradecine-2,10-bis(thiolate)] registered an EC50 of 0.58 µM.

Still in this experiment, the particulars now being: read-out: THP1-Dual cells IRF EC50; THP1-Dual cells (HAQ-mutated), 24 hours; 100% = maximum count with ML-RR-CDA·2Na+.
As for `Nc1ncnc2c1ncn2[C@@H]1O[C@@H]2COP(=O)(S)O[C@@H]3[C@@H](COP(=O)(S)O[C@@H]1[C@@H]2O)C[C@@H](n1cc2c4c(ncnc41)NCCC2)[C@@H]3O` (single isomer, unassigned) [46a], the EC50 stood at 3.9 µM.

For `Nc1ncnc2c1ncn2[C@@H]1O[C@@H]2COP(=O)(S)O[C@@H]3[C@@H](COP(=O)(S)O[C@@H]1[C@@H]2O)C[C@@H](n1cc2c4c(ncnc41)NCCC2)[C@@H]3O` (single isomer, unassigned) [46b], the concentration for a half-maximal effect (EC50) amounted to 0.87 µM.
